Data on twelve compounds can be found in patent publication EP3383875B1, “3-PYRIMIDINYL PYRROLO [2,3-B] PYRIDINE AS ANTICANCER AGENTS AND THE PROCESS FOR THE PREPARATION THEREOF” (Council Of Scientific & Industrial Research, priority 2015, dated 2017).

For orientation: inhibition means the drop in the measured response relative to a control, in per cent.

The structures appear in SMILES notation. Like-named read-outs stand apart in the source and are kept apart here. Where only a bound is given, the exact number is not on record here.

Test [1] concerns the target CDK-2/cyclin A (Homo sapiens, UniProt P24941). Description: CDK inhibition assay, CDK-2/cyclin A against Histone HI, 33P-ATP. In kind it is biochemical. To be noted: at 500 nM. Put shortly:
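CDK-2/cyclin A (5-20 mU) phosphorylating Histone HI (1 mg/ml) in 50 mM Hepes pH 7.5, 100 mM NaCl, 10 mM Mg acetate, 0.02 mM [33P-γ-ATP], 30 min at room temperature. Stopped with orthophosphoric acid, captured on P81 filters for radiometric readout.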

Test [2] has as its target CDK-9/Cyclin T1 (Homo sapiens, UniProt P50750). Description: CDK inhibition assay, CDK-9/Cyclin T1 against substrate peptide, 33P-ATP. To be noted: at 500 nM. In kind it is biochemical. How it is done: (50-1000 cpm/pmole) and incubated for 30 min at room temperature. Assays were stopped by addition of 5 µl of 0.5 M (3%) orthophosphoric acid and then harvested onto P81 Unifilter plates with a wash buffer of 50 mM orthophosphoric acid.

For test [3], the system named is MCF-7. Kind of test: MTT assay on cancer cell line MCF-7. The format is cell-based, Human. Conditions: for inhibition at 10 µM: Homo sapiens; for In vitro cell inhibition, % of inhibition, MCF-7: at 10µM. The protocol: (§1) Cell culture, growth conditions and treatments. […] Different molecules were dissolved in DMSO and were delivered to cell cultures in complete medium.
On the technique in general: Tetrazolium dyes change colour on reduction, which living cells bring about.

In test [4] the test system is PC-3. Description: MTT assay on cancer cell line PC-3. In kind it is cell-based, human. Conditions: for inhibition at 10 µM: Homo sapiens; for In vitro cell inhibition, % of inhibition, PC-3: at 10µM. How it is done: as §1
Test [5] relates to MDA-MB435. Description: MTT assay on cancer cell line MDA-MB435. In kind it is cell-based, Human. Conditions: for inhibition at 10 µM: Homo sapiens, MDA-MB-435. The protocol:
as §1

In test [6] the test system is HCT-116. Description: MTT assay on cancer cell line HCT-116. In kind it is cell-based, human. To be noted: for inhibition at 10 µM: Homo sapiens. The protocol:
as §1

Test [7] concerns SHSY-5Y. Description: MTT assay on cancer cell line SHSY-5Y. The format is cell-based, human. To be noted: for inhibition at 10 µM: Homo sapiens, SH-SY5Y; for In vitro cell inhibition, % of inhibition, SHSY-5Y: at 10µM. The protocol: as §1
Setting [8] is: Table-6, read-out: In vitro CDK2 % of inhibition.
[9] abbreviates: read-out: inhibition against CDK2.
[10] abbreviates: Table-6, read-out: In vitro CDK9 % of inhibition.
The mark [11] stands for this setting: read-out: inhibition against CDK9.
Setting [12] is: MCF7, MCF-7, Table 8, read-out: In vitro cell inhibition, % of inhibition, MCF-7.
Setting [13] is: MCF7, read-out: inhibition against MCF-7 cell lines.
[14] abbreviates: Table 8, read-out: In vitro cell inhibition, % of inhibition, PC-3.
[15] abbreviates: MDA-MB435, at 10µM, Table 8, read-out: In vitro cell inhibition, % of inhibition, MDA-MB435.
Where [16] appears, read: at 10 µM, read-out: inhibition against MDAMB-435 cell lines.
Where [17] appears, read: at 10µM, Table 8, read-out: In vitro cell inhibition, % of inhibition, HCT-116.
Where [18] appears, read: at 10 µM, read-out: inhibition against HCT-116 cell lines.
The mark [19] stands for this setting: SHSY-5Y, Table 8, read-out: In vitro cell inhibition, % of inhibition, SHSY-5Y.
Setting [20] is: read-out: inhibition against SHSY-5Y cell lines.
Setting [21] is: MCF7, MCF-7, Table 9 (for reference), read-out: In vitro cell inhibition, % of inhibition, MCF-7.
Where [22] appears, read: Table 9 (for reference), read-out: In vitro cell inhibition, % of inhibition, PC-3.
Setting [23] is: MDA-MB435, at 10µM, Table 9 (for reference), read-out: In vitro cell inhibition, % of inhibition, MDA-MB435.
Where [24] appears, read: at 10µM, Table 9 (for reference), read-out: In vitro cell inhibition, % of inhibition, HCT-116.
[25] abbreviates: SHSY-5Y, Table 9 (for reference), read-out: In vitro cell inhibition, % of inhibition, SHSY-5Y.

Sequence of CDK-9/Cyclin T1 (P50750 whole entry): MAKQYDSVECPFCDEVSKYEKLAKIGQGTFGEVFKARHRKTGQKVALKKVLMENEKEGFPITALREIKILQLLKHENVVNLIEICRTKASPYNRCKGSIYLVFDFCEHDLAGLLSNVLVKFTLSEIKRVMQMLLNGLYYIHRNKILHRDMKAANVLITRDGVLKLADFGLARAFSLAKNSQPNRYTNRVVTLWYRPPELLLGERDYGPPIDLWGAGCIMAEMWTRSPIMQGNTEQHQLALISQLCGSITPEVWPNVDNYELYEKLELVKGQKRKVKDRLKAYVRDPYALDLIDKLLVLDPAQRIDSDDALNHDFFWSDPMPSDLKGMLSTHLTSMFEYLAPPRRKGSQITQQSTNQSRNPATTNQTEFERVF
Sequence of CDK-9/Cyclin T1 (O60563 whole entry partner): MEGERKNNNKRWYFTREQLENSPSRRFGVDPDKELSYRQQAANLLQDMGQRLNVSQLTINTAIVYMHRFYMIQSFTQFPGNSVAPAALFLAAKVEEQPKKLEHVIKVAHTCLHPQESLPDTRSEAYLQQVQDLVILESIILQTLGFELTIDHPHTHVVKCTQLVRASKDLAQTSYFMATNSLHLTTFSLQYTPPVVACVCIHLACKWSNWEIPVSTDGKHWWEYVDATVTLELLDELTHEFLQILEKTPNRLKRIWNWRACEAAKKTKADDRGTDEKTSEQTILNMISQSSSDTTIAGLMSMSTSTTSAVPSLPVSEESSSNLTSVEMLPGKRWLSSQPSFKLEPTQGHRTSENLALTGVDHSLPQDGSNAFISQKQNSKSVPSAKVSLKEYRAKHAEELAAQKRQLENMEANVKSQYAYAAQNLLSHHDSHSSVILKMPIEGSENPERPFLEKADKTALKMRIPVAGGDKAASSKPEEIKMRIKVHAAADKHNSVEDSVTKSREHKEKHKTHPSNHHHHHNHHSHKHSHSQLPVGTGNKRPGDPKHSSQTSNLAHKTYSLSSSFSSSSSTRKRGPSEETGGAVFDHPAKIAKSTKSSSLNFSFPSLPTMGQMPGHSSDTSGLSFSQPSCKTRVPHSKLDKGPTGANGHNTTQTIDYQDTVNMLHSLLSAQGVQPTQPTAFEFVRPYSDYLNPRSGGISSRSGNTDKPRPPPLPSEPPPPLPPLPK

Consider `Fc1ccc(-c2cnc3[nH]cc(-c4ccnc(NC5CC5)n4)c3c2)cc1` [1A2, N-cyclopropyl-4-(5-(4-fluorophenyl)-1H-pyrrolo[2,3-b]pyridin-3-yl)pyrimidin-2-amine], for which the inhibition at 0.5 µM in test [1] (setting [8]), in test [1] (setting [9]), in test [2] (setting [10]) and in test [2] (setting [11]) was greater than 70% each time. The inhibition at 10 µM in test [3] (setting [12]) is greater than 70%; in test [3] (setting [13]) it was greater than 70%; in test [4] (setting [14]) it was greater than 50%; in test [4] (read-out: inhibition against PC-3 cell lines), greater than 50%; in test [5] (setting [15]), greater than 70%; in test [5] (setting [16]), greater than 70%. The inhibition at 10 µM in test [6] (setting [17]), in test [6] (setting [18]), in test [7] (setting [19]) and in test [7] (setting [20]) was greater than 70% throughout.

On to `Fc1cccc(-c2cnc3[nH]cc(-c4ccnc(NC5CC5)n4)c3c2)c1` [1A5, N-cyclopropyl-4-(5-(3-fluorophenyl)-1H-pyrrolo[2,3-b]pyridin-3-yl)pyrimidin-2-amine], for which the inhibition at 0.5 µM in test [1] (setting [8]), in test [1] (setting [9]), in test [2] (setting [10]) and in test [2] (setting [11]) was greater than 70% each time. The inhibition at 10 µM in test [3] (setting [12]), in test [3] (setting [13]), in test [4] (setting [14]), in test [5] (setting [15]), in test [5] (setting [16]) and in test [6] (setting [17]) was greater than 70% throughout. In addition, the inhibition at 10 µM in test [6] (setting [18]), in test [7] (setting [19]) and in test [7] (setting [20]) was greater than 70% in each case.

On to `COc1ccc(-c2cnc3[nH]cc(-c4ccnc(N)n4)c3c2)cc1` [1C11, 4-(5-(4-methoxyphenyl)-1H-pyrrolo[2,3-b]pyridin-3-yl)pyrimidin-2-amine], for which the inhibition at 10 µM in test [3] (setting [21]) is greater than 50%; in test [3] (setting [13]) it was greater than 50%; in test [4] (setting [22]) it was less than 50%; in test [5] (setting [23]), greater than 70%; in test [6] (setting [24]), greater than 70%; in test [7] (setting [25]), greater than 70%. Besides, the inhibition at 10 µM in test [7] (setting [20]) was greater than 70%.

With `Nc1nccc(-c2c[nH]c3ncc(-c4ccc(Cl)cc4)cc23)n1` [1C12, 4-(5-(4-chlorophenyl)-1H-pyrrolo[2,3-b]pyridin-3-yl)pyrimidin-2-amine], the inhibition at 10 µM in test [3] (setting [21]), in test [3] (setting [13]), in test [4] (setting [22]), in test [5] (setting [23]), in test [6] (setting [24]) and in test [7] (setting [25]) was greater than 70% each time. Also, the inhibition at 10 µM in test [7] (setting [20]) is greater than 70%.

In the case of `Nc1nccc(-c2c[nH]c3ncc(-c4ccc(C=O)cc4)cc23)n1` [1C13, 4-(3-(2-aminopyrimidin-4-yl)-1H-pyrrolo[2,3-b]pyridin-5-yl)benzaldehyde], the inhibition at 10 µM in test [3] (setting [21]), in test [3] (setting [13]), in test [4] (setting [22]), in test [5] (setting [23]), in test [6] (setting [24]) and in test [7] (setting [25]) was greater than 50% each time.

On to `Nc1nccc(-c2c[nH]c3ncc(-c4cccnc4)cc23)n1` [1C15, 4-(5-(pyridin-3-yl)-1H-pyrrolo[2,3-b]pyridin-3-yl)pyrimidin-2-amine], for which the inhibition at 10 µM is greater than 70% in test [3] (setting [21]); greater than 70% in test [3] (setting [13]); less than 50% in test [4] (setting [22]); greater than 70% in test [5] (setting [23]); greater than 50% in test [6] (setting [24]); greater than 70% in test [7] (setting [25]). The inhibition at 10 µM in test [7] (setting [20]) is greater than 70%.

For the compound `Nc1nccc(-c2c[nH]c3ncc(-c4ccoc4)cc23)n1` [1C16, 4-(5-(furan-3-yl)-1H-pyrrolo[2,3-b]pyridin-3-yl)pyrimidin-2-amine], the inhibition at 10 µM in test [3] (setting [21]) is greater than 70%; in test [3] (setting [13]), greater than 70%; in test [4] (setting [22]), less than 50%; in test [5] (setting [23]), greater than 70%; in test [6] (setting [24]), greater than 70%; in test [7] (setting [25]) it was greater than 70%. The inhibition at 10 µM in test [7] (setting [20]) was greater than 70%.

For the compound `COc1ccc2[nH]c(-c3cnc4[nH]cc(-c5ccnc(N)n5)c4c3)cc2c1` [1C17, 4-(5-(5-methoxy-1H-indol-2-yl)-1H-pyrrolo[2,3-b]pyridin-3-yl)pyrimidin-2-amine], the inhibition at 10 µM in test [3] (setting [21]) is greater than 70%; in test [3] (setting [13]) it was greater than 70%; in test [4] (setting [22]), greater than 50%; in test [5] (setting [23]), greater than 70%; in test [6] (setting [24]), greater than 70%; in test [7] (setting [25]), less than 50%.

As to `Nc1nccc(-c2c[nH]c3ncc(-c4cc5ccccc5s4)cc23)n1` [1C18, 4-(5-(benzo[b]thiophen-2-yl)-1H-pyrrolo[2,3-b]pyridin-3-yl)pyrimidin-2-amine], the inhibition at 10 µM in test [3] (setting [21]) was greater than 70%; in test [4] (setting [22]) it was greater than 70%; in test [5] (setting [23]), less than 50%; in test [6] (setting [24]), greater than 70%; in test [7] (setting [25]) it was greater than 70%; in test [7] (setting [20]), greater than 70%.

Regarding `Nc1nccc(-c2c[nH]c3ncc(-c4cc5ccccc5[nH]4)cc23)n1` [1C19, 4-(5-(1H-indol-2-yl)-1H-pyrrolo[2,3-b]pyridin-3-yl)pyrimidin-2-amine], the inhibition at 10 µM in test [3] (setting [21]) was greater than 50%; in test [3] (setting [13]) it was greater than 70%; in test [4] (setting [22]), less than 50%; in test [5] (setting [23]), greater than 50%; in test [6] (setting [24]) it was greater than 50%; in test [7] (setting [25]) it was greater than 70%. Further, in test [7] (setting [20]), the inhibition at 10 µM was greater than 70%.

With `Nc1nccc(-c2c[nH]c3ncc(-c4nccc5ccccc45)cc23)n1` [1C20, 4-(5-(isoquinolin-1-yl)-1H-pyrrolo[2,3-b]pyridin-3-yl)pyrimidin-2-amine], the inhibition at 10 µM in test [3] (setting [21]) is greater than 50%; in test [3] (setting [13]), greater than 50%; in test [4] (setting [22]) it was greater than 50%; in test [5] (setting [23]), greater than 50%; in test [6] (setting [24]) it was greater than 70%; in test [7] (setting [25]), greater than 50%.

As for `Nc1nccc(-c2c[nH]c3ncccc23)n1` [Meriolin 1, reference compound], in test [2] (Table-6), the “In vitro CDK9 % of inhibition” value is reported as “+++ (+++ indicates greater than 70% of inhibition (+++ >70% of inhibition))”. The figures for the “In vitro cell inhibition, % of inhibition, MCF-7” value in test [3] (Table 8) and in test [3] (Table 9 (for reference)) were “++ (++ indicates greater than 50% of inhibition (++ >50% of inhibition))” and “++ (++ indicates greater than 50% of inhibition (++ > 50% of inhibition))”, respectively. For the same compound, the “In vitro cell inhibition, % of inhibition, PC-3” value in test [4] (Table 8) is “++ (++ indicates greater than 50% of inhibition (++ >50% of inhibition))”; in test [4] (Table 9 (for reference)), “++ (++ indicates greater than 50% of inhibition (++ > 50% of inhibition))”. The “In vitro cell inhibition, % of inhibition, MDA-MB435” value in test [5] (MDA-MB435, at 10µM, Table 8) was “++ (++ indicates greater than 50% of inhibition (++ >50% of inhibition))”; in test [5] (MDA-MB435, at 10µM, Table 9 (for reference)), “++ (++ indicates greater than 50% of inhibition (++ > 50% of inhibition))”. Further, the “In vitro cell inhibition, % of inhibition, HCT-116” value was “++ (++ indicates greater than 50% of inhibition (++ >50% of inhibition))” in test [6] (at 10µM, Table 8) and “++ (++ indicates greater than 50% of inhibition (++ > 50% of inhibition))” in test [6] (at 10µM, Table 9 (for reference)). Further, the “In vitro cell inhibition, % of inhibition, SHSY-5Y” value in test [7] (SHSY-5Y, Table 8) is recorded as “+++ (+++ indicates greater than 70% of inhibition (+++ >70% of inhibition))”; in test [7] (SHSY-5Y, Table 9 (for reference)) it was “+++ (+++ indicates greater than 70% of inhibition (+++ >70% of inhibition))”.
